Data from US20220009874A1, “CATALYTIC SYNTHESIS OF ANTI-UV AND ANTIOXIDANT CONJUGATED 8-8 DIMERS IN A GREEN SOLVENT” (INSTITUT DES SCIENCES ET INDUSTRIES DU VIVANT ET DE …, priority 2018, published 2022).

Experiment: UV absorbance of the dimers in ethanol compared with sinapoyl malate
Assay type: physicochemical
Settings: 10 μmol·L^−1 in ethanol; for absorption band: FIG. 1
Description: a. […] A change of the R3 radical can also affect these properties (FIG. 11).

absorption band | SMILES | anti-UV properties (UV absorbance) compared with sinapoyl malate (FIGS. 1 to 16)
200-400 nm | CCOC(=O)C(=Cc1cc(OC)c(O)c(OC)c1)C(=Cc1cc(OC)c(O)c(OC)c1)C(=O)OCC [ethyl β-β disinapate] | higher anti-UV properties than sinapoyl malate
200-370 nm | COc1cc(/C=C/C(=O)OC(CC(=O)O)C(=O)O)cc(OC)c1O (stereo not drawn) [sinapoyl malate, reference compound] | 
